Data from the NIST ThermoML archive (doi:10.1016/j.jct.2017.10.014).

Assay: xn = mol fraction of the nth substance listed
Details: 100 kPa, Liquid, Vibrating tube method

CC(C)(CO)[C@@H](O)C(=O)NCCCO [d-Panthenol] + O
mass density [kg/m3]
Details | 298.15 K | 303.15 K | 308.15 K | 313.15 K
x1 = 0.0036 | – | 1002.18 | 1000.46 | 998.5
x1 = 0.0054 | – | 1005.33 | 1003.56 | 1001.53
x1 = 0.0071 | – | 1008.35 | 1006.55 | 1004.49
x1 = 0.0089 | – | 1011.34 | 1009.5 | 1007.4
x1 = 0.0107 | – | 1014.32 | 1012.45 | 1010.32
x1 = 0.0124 | – | 1017.07 | 1015.14 | 1012.99
x1 = 0.0142 | – | 1019.84 | 1017.89 | 1015.72
x1 = 0.0248 | – | 1035.87 | 1033.67 | 1031.28
x1 = 0.031 | – | 1044.71 | 1042.43 | 1039.83
x1 = 0.0376 | – | 1051.55 | 1049.07 | 1046.45
x1 = 0.0501 | – | 1064.45 | 1062.19 | 1059.96
x1 = 0.0996 | – | 1096.7 | 1093.45 | 1090.55
x1 = 0.1997 | – | 1127.26 | 1123.64 | 1119.93
x1 = 0.2495 | – | 1134.68 | 1130.9 | 1127.21
x1 = 0.2871 | – | 1139.2 | 1135.41 | 1131.52
x1 = 0.342 | – | 1143.4 | 1139.69 | 1135.87
x1 = 0.4007 | – | 1146.9 | 1143.02 | 1139.25
x1 = 0.4958 | 1154.87 | 1151.08 | 1147.04 | 1143.29
x1 = 0.5944 | 1157.16 | 1153.51 | 1149.72 | 1145.77
x1 = 0.708 | 1159.25 | 1155.76 | 1152.16 | 1148.24
x1 = 0.8067 | 1160.22 | 1156.74 | 1153.27 | 1149.57
x1 = 0.8753 | 1160.86 | 1157.46 | 1153.96 | 1150.3
x1 = 1 | 1161.68 | 1158.27 | 1154.96 | 1151.46
